ChEMBL document CHEMBL5649169 (ChemMedChem, 2018)

Key:
[1] = target: ATP-binding cassette sub-family D member 3 (Homo sapiens) (UniProt P28288)
[2] = target: Alpha-actinin-4 (Homo sapiens) (UniProt O43707)
[3] = target: Actin-related protein 2/3 complex subunit 1B (Homo sapiens) (UniProt O15143)
[4] = target: Calcium/calmodulin-dependent protein kinase type IV (Homo sapiens) (UniProt Q16566)
[5] = target: PAT complex subunit CCDC47 (Homo sapiens) (UniProt Q96A33)
[6] = target: MICOS complex subunit MIC19 (Homo sapiens) (UniProt Q9NX63)
[7] = target: Calponin-2 (Homo sapiens) (UniProt Q99439)
[8] = target: Conserved oligomeric Golgi complex subunit 1 (Homo sapiens) (UniProt Q8WTW3)
[9] = target: Cytochrome c oxidase subunit 6C (Homo sapiens) (UniProt P09669)
[10] = target: Cleavage and polyadenylation specificity factor subunit 6 (Homo sapiens) (UniProt Q16630)
[11] = target: Carnitine O-palmitoyltransferase 1, liver isoform (Homo sapiens) (UniProt P50416)
[12] = target: Cytoplasmic FMR1-interacting protein 1 (Homo sapiens) (UniProt Q7L576)
[13] = target: Probable ATP-dependent RNA helicase DDX17 (Homo sapiens) (UniProt Q92841)
[14] = target: Probable ATP-dependent RNA helicase DDX5 (Homo sapiens) (UniProt P17844)
[15] = target: Protein diaphanous homolog 1 (Homo sapiens) (UniProt O60610)
[16] = target: Dihydrolipoyl dehydrogenase, mitochondrial (Homo sapiens) (UniProt P09622)
[17] = target: ELAV-like protein 1 (Homo sapiens) (UniProt Q15717)
[18] = target: Glycine--tRNA ligase (Homo sapiens) (UniProt P41250)
[19] = target: Heterogeneous nuclear ribonucleoprotein U (Homo sapiens) (UniProt Q00839)
[20] = target: Stress-70 protein, mitochondrial (Homo sapiens) (UniProt P38646)
[21] = target: Scaffold protein ILK (Homo sapiens) (UniProt Q13418)
[22] = target: Lamin-B1 (Homo sapiens) (UniProt P20700)
[23] = target: Putative RNA-binding protein Luc7-like 2 (Homo sapiens) (UniProt Q9Y383)
[24] = target: Mitogen-activated protein kinase kinase kinase 2 (Homo sapiens) (UniProt Q9Y2U5)
[25] = target: Metaxin-2 (Homo sapiens) (UniProt O75431)
[26] = target: Unconventional myosin-If (Homo sapiens) (UniProt O00160)
[27] = target: N-alpha-acetyltransferase 15, NatA auxiliary subunit (Homo sapiens) (UniProt Q9BXJ9)
[28] = target: Phosphoprotein associated with glycosphingolipid-enriched microdomains 1 (Homo sapiens) (UniProt Q9NWQ8)
[29] = target: Pyridoxal kinase (Homo sapiens) (UniProt O00764)
[30] = target: Serine/threonine-protein kinase PLK4 (Homo sapiens) (UniProt O00444)
[31] = target: Peroxiredoxin-1 (Homo sapiens) (UniProt Q06830)
[32] = target: cAMP-dependent protein kinase type II-alpha regulatory subunit (Homo sapiens) (UniProt P13861)
[33] = target: Proteasome subunit alpha type-7 (Homo sapiens) (UniProt O14818)
[34] = target: 26S proteasome non-ATPase regulatory subunit 2 (Homo sapiens) (UniProt Q13200)
[35] = target: Poly(U)-binding-splicing factor PUF60 (Homo sapiens) (UniProt Q9UHX1)
[36] = target: GTP-binding nuclear protein Ran (Homo sapiens) (UniProt P62826)
[37] = target: E3 ubiquitin-protein ligase RNF213 (Homo sapiens) (UniProt Q63HN8)
[38] = target: Large ribosomal subunit protein uL30 (Homo sapiens) (UniProt P18124)
[39] = target: Small ribosomal subunit protein uS10 (Homo sapiens) (UniProt P60866)
[40] = target: Protein transport protein Sec23B (Homo sapiens) (UniProt Q15437)
[41] = target: Surfeit locus protein 4 (Homo sapiens) (UniProt O15260)
[42] = target: Transmembrane protein 43 (Homo sapiens) (UniProt Q9BTV4)
[43] = target: Tripeptidyl-peptidase 1 (Homo sapiens) (UniProt O14773)
[44] = target: Ubiquitin carboxyl-terminal hydrolase 5 (Homo sapiens) (UniProt P45974)
[45] = target: Vesicle-associated membrane protein 8 (Homo sapiens) (UniProt Q9BV40)
[46] = target: Tyrosine-protein kinase Yes (Homo sapiens) (UniProt P07947)
Note: assay method not described here.

Cytoplasmic FMR1-interacting protein 1 (Homo sapiens), sequence (Q7L576 whole entry): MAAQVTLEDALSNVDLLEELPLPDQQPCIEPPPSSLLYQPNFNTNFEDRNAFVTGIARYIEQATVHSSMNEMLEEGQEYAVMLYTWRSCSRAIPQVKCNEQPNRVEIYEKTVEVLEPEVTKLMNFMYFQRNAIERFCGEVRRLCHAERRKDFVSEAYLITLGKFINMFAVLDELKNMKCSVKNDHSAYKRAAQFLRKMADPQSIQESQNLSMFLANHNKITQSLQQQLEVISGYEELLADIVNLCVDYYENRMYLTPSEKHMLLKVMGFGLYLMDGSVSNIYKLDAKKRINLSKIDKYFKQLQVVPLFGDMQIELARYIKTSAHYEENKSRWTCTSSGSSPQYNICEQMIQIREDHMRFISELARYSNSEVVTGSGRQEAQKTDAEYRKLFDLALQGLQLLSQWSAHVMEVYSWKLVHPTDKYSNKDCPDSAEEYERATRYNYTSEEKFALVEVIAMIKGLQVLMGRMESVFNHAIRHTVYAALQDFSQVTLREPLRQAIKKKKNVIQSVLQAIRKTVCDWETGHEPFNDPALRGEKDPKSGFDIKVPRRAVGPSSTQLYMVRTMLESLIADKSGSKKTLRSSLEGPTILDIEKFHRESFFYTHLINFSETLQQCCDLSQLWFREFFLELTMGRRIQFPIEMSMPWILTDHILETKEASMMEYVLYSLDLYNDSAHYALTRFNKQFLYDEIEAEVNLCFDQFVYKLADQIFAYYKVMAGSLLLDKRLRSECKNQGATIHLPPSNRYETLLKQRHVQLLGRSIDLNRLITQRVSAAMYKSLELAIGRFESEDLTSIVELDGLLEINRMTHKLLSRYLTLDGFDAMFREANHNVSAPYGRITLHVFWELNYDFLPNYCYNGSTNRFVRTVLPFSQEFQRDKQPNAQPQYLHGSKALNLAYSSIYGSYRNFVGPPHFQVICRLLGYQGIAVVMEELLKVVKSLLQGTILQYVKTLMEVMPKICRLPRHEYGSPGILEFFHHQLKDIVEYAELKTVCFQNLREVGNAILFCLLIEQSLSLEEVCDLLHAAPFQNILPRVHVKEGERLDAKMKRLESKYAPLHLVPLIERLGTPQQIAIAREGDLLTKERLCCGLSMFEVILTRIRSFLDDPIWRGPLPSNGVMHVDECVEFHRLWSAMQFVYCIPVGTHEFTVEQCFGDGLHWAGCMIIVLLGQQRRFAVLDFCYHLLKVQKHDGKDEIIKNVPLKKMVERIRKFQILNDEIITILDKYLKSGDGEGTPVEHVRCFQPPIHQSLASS
Transmembrane protein 43 (Homo sapiens), sequence (Q9BTV4 whole entry): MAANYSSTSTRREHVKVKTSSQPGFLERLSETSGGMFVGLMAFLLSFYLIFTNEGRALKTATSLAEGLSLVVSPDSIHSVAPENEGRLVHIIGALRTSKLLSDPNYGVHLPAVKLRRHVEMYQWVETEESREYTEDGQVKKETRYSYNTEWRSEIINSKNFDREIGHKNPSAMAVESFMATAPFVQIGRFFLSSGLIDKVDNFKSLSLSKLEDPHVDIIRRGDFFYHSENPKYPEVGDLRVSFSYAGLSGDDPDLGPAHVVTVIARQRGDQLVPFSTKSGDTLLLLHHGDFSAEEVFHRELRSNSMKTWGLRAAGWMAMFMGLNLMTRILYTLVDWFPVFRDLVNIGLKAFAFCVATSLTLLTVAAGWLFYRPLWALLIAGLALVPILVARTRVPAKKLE
Calponin-2 (Homo sapiens), sequence (Q99439 whole entry): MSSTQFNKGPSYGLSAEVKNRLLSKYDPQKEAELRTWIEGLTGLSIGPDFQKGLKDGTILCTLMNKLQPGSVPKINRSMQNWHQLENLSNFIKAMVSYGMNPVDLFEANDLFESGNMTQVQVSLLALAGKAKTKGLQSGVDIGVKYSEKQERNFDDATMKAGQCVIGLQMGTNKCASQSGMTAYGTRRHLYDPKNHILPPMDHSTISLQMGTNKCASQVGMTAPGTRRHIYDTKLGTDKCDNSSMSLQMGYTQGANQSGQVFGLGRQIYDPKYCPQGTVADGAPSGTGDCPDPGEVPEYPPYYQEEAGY
Dihydrolipoyl dehydrogenase, mitochondrial (Homo sapiens), sequence (P09622 whole entry): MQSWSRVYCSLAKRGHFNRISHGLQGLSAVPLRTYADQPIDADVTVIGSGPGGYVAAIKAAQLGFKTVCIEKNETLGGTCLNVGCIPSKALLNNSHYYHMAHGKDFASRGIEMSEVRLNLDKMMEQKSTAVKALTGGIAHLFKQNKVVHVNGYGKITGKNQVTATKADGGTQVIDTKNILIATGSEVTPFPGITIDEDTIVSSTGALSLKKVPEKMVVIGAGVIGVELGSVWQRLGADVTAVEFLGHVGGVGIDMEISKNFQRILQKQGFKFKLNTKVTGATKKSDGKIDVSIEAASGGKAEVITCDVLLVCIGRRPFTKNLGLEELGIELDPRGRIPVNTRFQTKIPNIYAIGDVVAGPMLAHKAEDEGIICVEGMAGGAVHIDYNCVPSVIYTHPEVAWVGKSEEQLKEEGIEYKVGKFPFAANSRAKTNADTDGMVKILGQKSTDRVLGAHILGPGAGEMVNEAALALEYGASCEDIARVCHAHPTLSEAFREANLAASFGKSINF
Cleavage and polyadenylation specificity factor subunit 6 (Homo sapiens), sequence (Q16630 whole entry, canonical isoform): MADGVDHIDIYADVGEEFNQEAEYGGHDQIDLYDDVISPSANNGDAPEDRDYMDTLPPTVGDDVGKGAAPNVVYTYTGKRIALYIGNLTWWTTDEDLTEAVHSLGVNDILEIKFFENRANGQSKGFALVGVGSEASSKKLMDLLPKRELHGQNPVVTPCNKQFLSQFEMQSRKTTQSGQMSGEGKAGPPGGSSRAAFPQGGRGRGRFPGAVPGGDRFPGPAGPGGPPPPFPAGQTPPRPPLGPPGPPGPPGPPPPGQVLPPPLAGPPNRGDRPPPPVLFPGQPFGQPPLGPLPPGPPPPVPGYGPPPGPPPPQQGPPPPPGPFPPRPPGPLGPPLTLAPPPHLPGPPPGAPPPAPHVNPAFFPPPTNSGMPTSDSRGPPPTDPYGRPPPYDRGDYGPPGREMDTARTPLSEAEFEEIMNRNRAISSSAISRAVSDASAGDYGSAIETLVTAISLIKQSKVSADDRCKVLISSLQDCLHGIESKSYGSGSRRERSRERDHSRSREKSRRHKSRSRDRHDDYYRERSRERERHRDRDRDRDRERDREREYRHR
Protein transport protein Sec23B (Homo sapiens), sequence (Q15437 whole entry): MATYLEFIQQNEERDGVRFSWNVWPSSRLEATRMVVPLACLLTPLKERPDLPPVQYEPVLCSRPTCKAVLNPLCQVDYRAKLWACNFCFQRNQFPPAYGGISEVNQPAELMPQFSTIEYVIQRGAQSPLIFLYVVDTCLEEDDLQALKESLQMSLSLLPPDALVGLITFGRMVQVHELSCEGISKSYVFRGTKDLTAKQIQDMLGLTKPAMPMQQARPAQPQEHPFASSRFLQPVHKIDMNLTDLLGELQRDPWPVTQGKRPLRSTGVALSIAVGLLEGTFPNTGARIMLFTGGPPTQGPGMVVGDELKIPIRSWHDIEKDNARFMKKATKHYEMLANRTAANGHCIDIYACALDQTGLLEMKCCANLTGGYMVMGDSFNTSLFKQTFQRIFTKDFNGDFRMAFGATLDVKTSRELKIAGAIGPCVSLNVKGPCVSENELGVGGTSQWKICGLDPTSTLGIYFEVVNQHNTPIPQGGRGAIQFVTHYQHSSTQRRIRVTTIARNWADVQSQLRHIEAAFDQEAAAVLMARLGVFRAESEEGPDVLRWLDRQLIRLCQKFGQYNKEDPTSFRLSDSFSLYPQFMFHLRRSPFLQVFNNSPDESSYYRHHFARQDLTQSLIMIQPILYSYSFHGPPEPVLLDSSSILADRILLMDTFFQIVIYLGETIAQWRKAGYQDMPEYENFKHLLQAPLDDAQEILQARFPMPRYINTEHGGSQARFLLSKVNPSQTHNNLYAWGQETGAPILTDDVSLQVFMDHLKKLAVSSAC
Serine/threonine-protein kinase PLK4 (Homo sapiens), sequence (O00444 whole entry): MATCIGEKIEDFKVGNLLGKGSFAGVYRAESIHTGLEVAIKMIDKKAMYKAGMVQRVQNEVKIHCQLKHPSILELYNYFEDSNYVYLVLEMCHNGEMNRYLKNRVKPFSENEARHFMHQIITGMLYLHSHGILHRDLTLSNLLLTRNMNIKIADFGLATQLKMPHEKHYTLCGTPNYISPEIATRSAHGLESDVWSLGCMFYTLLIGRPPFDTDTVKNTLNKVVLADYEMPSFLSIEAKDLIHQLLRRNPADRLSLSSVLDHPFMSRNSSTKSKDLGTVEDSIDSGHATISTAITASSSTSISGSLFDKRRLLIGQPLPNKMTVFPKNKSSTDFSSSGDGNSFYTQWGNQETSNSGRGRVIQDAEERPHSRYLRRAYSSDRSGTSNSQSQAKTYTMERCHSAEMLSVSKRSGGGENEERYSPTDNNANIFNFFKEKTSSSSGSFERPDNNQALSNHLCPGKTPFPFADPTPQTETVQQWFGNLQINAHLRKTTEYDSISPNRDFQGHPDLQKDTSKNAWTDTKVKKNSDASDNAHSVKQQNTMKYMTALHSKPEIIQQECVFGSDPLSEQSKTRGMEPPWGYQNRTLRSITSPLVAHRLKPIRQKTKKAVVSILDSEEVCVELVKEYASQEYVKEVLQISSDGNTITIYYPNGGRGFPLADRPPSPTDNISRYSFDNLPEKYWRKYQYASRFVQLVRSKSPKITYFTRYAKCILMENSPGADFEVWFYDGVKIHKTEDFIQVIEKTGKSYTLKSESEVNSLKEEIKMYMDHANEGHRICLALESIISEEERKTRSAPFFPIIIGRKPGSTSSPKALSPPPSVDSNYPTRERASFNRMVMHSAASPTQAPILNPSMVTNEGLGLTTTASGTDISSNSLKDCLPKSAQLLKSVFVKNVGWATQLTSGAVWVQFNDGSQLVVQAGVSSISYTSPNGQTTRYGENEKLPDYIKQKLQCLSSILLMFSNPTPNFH
Peroxiredoxin-1 (Homo sapiens), sequence (Q06830 whole entry): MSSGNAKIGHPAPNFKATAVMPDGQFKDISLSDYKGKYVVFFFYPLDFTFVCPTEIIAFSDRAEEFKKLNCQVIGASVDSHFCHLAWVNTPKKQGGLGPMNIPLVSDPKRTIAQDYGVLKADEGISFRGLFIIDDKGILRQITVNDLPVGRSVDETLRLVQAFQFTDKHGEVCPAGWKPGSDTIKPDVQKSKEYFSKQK

Cc1ccc(C(=O)Nc2cccc(C(F)(F)F)c2)cc1Nc1nc(-c2cccnc2)nc2c1cnn2C
ED50 [1]: 2.02 µM | ED50 [2]: 4.01 µM | ED50 [3]: 115 µM | ED50 [4]: 2.34 µM | ED50 [5]: 0.136 µM | ED50 [6]: 0.0271 µM | ED50 [7]: 85.5 µM | ED50 [8]: 0.0039 µM | ED50 [9]: 16.2 µM | ED50 [10]: 15 µM | ED50 [11]: 0.0014 µM | ED50 [12]: 0.00564 µM | ED50 [13]: 0.126 µM | ED50 [14]: 1.16 µM | ED50 [15]: 0.00521 µM | ED50 [16]: 11.1 µM | ED50 [17]: 0.0107 µM | ED50 [18]: 0.0374 µM | ED50 [19]: 0.0195 µM | ED50 [20]: 0.0314 µM | ED50 [21]: 57.4 µM | ED50 [22]: 13.8 µM | ED50 [23]: 1.77 µM | ED50 [24]: 0.1 µM | ED50 [25]: 0.0101 µM | ED50 [26]: 4.43 µM | ED50 [27]: 11.7 µM | ED50 [28]: 16.8 µM | ED50 [29]: 0.00509 µM | ED50 [30]: 0.174 µM | ED50 [31]: 0.0459 µM | ED50 [32]: 8.24 µM | ED50 [33]: 94.2 µM | ED50 [34]: 3.14 µM | ED50 [35]: 11 µM | ED50 [36]: 4.29 µM | ED50 [37]: 53.8 µM | ED50 [38]: 0.0167 µM | ED50 [39]: 0.371 µM | ED50 [40]: 9.39 µM | ED50 [41]: 0.017 µM | ED50 [42]: 0.00615 µM | ED50 [43]: 3.39 µM | ED50 [44]: 130 µM | ED50 [45]: 1.84 µM | ED50 [46]: 2.58 µM

Cc1ccc(C(=O)Nc2cccc(C(F)(F)F)c2)cc1Nc1nc(-c2cccnc2)nc2nn(C)cc12
ED50 [1]: 0.0289 µM | ED50 [2]: 0.12 µM | ED50 [3]: 0.0545 µM | ED50 [4]: 2.78 µM | ED50 [5]: 40.6 µM | ED50 [6]: 0.0144 µM | ED50 [7]: 79.2 µM | ED50 [8]: 69.8 µM | ED50 [9]: 0.012 µM | ED50 [10]: 0.349 µM | ED50 [11]: 0.0676 µM | ED50 [12]: 2.75 µM | ED50 [13]: 16.2 µM | ED50 [14]: 0.0157 µM | ED50 [15]: 1.44 µM | ED50 [16]: 10.8 µM | ED50 [17]: 16.5 µM | ED50 [18]: 17.6 µM | ED50 [19]: 13200 µM | ED50 [20]: 0.0308 µM | ED50 [21]: 67.3 µM | ED50 [22]: 0.42 µM | ED50 [23]: 4.27 µM | ED50 [24]: 9.44 µM | ED50 [25]: 1.77 µM | ED50 [26]: 0.105 µM | ED50 [27]: 2.07 µM | ED50 [28]: 1.77 µM | ED50 [29]: 1.19 µM | ED50 [30]: 4.34 µM | ED50 [31]: 9.72 µM | ED50 [32]: 0.325 µM | ED50 [33]: 17.5 µM | ED50 [34]: 14.9 µM | ED50 [35]: 0.00583 µM | ED50 [36]: 0.116 µM | ED50 [37]: 0.595 µM | ED50 [38]: 12.3 µM | ED50 [39]: 3.63 µM | ED50 [40]: 0.0397 µM | ED50 [41]: 0.0151 µM | ED50 [42]: 10.6 µM | ED50 [43]: 5310 µM | ED50 [44]: 0.00988 µM | ED50 [45]: 4.59 µM | ED50 [46]: 3.56 µM
